Converted amounts (≈) assume the structure as drawn. *1 amine or outer side, *2 acyl side, *3 side chain or, on linkers, in order; H or OH if unused. Where a SMILES comes first, the peptide text is derived from it. The star is where a group is joined. NH(CH2)3(OCH2CH2)2O(CH2)3NH = C(CN[*:1])COCCOCCOCCCN[*:2]; Palmitoyl = CCCCCCCCCCCCCCCC(=O)*
Legend:
[1] = system: Staphylococcus epidermidis; conditions: 21 h
Method: (§1) Minimum inhibitory concentration (MIC) is the lowest concentration of an antimicrobial that will inhibit the growth occurred between time zero and […].
(§2) The MIC of peptides of examples 1, 2 and 3 was determined using gram negative bacteria (Escherichia Coli, Vibrio angillarum, Vibrio ordalii, Enterobacter aerogenes, Aeromonas hydrophila, Vibrio parahemolyticus, Bacillus Oleronius and Salmonella tiphy) and gram positive bacteria (Bacillus megaterium, Micrococcus luteus, Staphylococcus aureus and Staphylococcus epidermidis).
(§3) To initiate the exponential phase of bacterial growth prior to the assay, a sample of each bacteria type was allowed to grow overnight at 37° C. in Mueller-Hinton broth and incubated at 37° C. MRSA (Methicillin Resistant Staphylococcus aureus) was grown at 35° C. in cation-adjusted MH broth.
(§4) A final concentration of 1×10^5 CFU/ml was used in all assays. The assays were carried out in 96-well flat-bottom plates. Bacterial suspension in 2× concentrated broth was added to the different peptides at concentrations that varied from 2.500 to 1 μ/mL in H2O in serial twofold dilutions (Time t0). The plates were then incubated for 21 h (Time tf) at 37° C. […] The concentration necessary to inhibit 50% bacterial growth (IC50) could be by using sigmoidal curve-fitting software.

Vibro ordalii = conditions: 21 h
Method: as §1, §2, §3, §4

Bacillus megaterium = conditions: 21 h
Method: as §1, §2, §3, §4

Bacillus oleronius = conditions: 21 h
Method: as §1, §2, §3, §4

Vibrio angillarum = conditions: 21 h
Method: as §1, §2, §3, §4

Micrococcus luteus = conditions: 21 h
Method: as §1, §2, §3, §4

Salmonella tiphy = conditions: 1×10^5 CFU/ml, 21 h at 37° C., optical density at 620 nm
Method: as §1, §2, §3, §4

Enterobacter hydrophila = conditions: 21 h
Method: as §1, §2, §3, §4

E. Coli = conditions: 21 h
Method: as §1, §2, §3, §4

Staphylococcus aureus = conditions: 21 h
Method: as §1, §2, §3, §4

in vitro = format: cell-based; conditions: human
Method: As a safety test for the peptides of the present invention the hemolytic activity was determined by using human erythrocytes (RBCs).
The assays were carried out in 96-well flat-bottom plates against a 0.25% RBC suspension as described elsewhere (Blondelle, S. E., L. R. Simpkins, E. Pérez-Payá, and R. A. Houghten. 1993. Influence of tryptophan residues on melitin's hemolytic activity. Biochim. Biophys. Acta 1202:331-336.).
In brief, peptide mixtures were added to the RBC solution at concentrations that varied from 500 to 4 μg/mL in serial twofold dilutions. Following incubation at 37° C. for 1 hour, the plates were centrifuged at 2.800 rpm for 5 min. The supernatant was separated from the pellet, an its optical density at 414 nm was measured. The hemolytic dose to lyse 50% of RBCs (IC50) was calculated by using the sigmoidal curve-fitting software Graphpad.

Fusarium oxysporum = format: cell-based
Method: (§5) For this essay, diluted spores kept at −80° C. were used (fresh ones in the case of de Saprolegnia sp.), 1×10^4 spores/ml at the specific media for every fungi. 10 μg/ml of tetracycline were added to avoid bacterial action. […] of peptide solution plus […] of spore solution alongside the adequated media are added to a 96 wells microplaque. As a positive control a culture of the spores at the same concentration than the assay but without peptide. The MICs were defined as the lowest concentrations of peptides at which total inhibition of growth is observed and no change in optical density at 595 nm occurred between the measures obtained at t0 and tf.

Saprolegnia sp = format: cell-based
Method: as §5

Neurospora crassa = format: cell-based
Method: as §5

LPS from E. Coli 055:B5 = assay: LPS-neutralizing activity, chromogenic Limulus Amebocyte Lysate (LAL) test; format: biochemical; conditions: LPS 100 pg/mL, 45 min at 37° C., read-out: LPS-neutralization activity IC50 ± SD
Method: All solutions used in the LPS-neutralizing activity assay were tested to ensure they were endotoxin-free and material was sterilized by heating 3 h at 180° C. LPS from E. Coli 055:B5 and Polymyxin B were purchased from Sigma. LPS-neutralizing activity was measured using the chromogenic Limulus Amebocyte Lysate (LAL) test 40 following the manufacturer's instructions (Cambrex). LAL reagent contains a clottable protein that is activated in the presence of non-neutralized LPS and is an extremely sensitive indicator of the presence of endotoxin. When activated, this enzyme catalyses the release of p-nitroaniline (pNA) from the colorless chromogenic substrate Ac-Ile-Glu-Ala-Arg-pNA. The pNA released was measured photometrically at 405 nm in a Rosys Anthos 2010 microtiter plate reader (Tecnomara AG, Zurich, Switzerland). Peptides were incubated at a range of concentrations (200 to 0.001 μM) with LPS (100 pg/mL) in a 96-well microtiter for 45 min at 37° C. Polymyxin B (10 μg/mL) was used as positive control. LAL (12.5 μL) was added to start the reaction at 37° C. After 16 min, non-neutralized LPS was detected after a 10 min incubation with the chromogenic substrate (25 μ) Acetic acid (25% v/v final concentration) was added to stop the reaction and the absorbance was monitored at 405 nm in a Multiskan Ascent microtiter plate reader (ThermoLabsystems). IC50 (the concentration necessary to in vitro neutralize 50% of LPS) values were determined by a serial dilution assay using 100 pg/mL of LPS and a range of peptide concentrations as mentioned above.

## CCCCCCCCCCCCCCCC(=O)N[C@@H](CCCCN)C(=O)N[C@@H](C)C(=O)N[C@@H](CCC(N)=O)C(=O)N[C@@H](CCCCN)C(=O)N[C@@H](CCCNC(=N)N)C(=O)N[C@@H](Cc1ccccc1)C(=O)NCCCOCCOCCOCCCN [Example 3, Palm-KAQKRF-NH—(CH2)3—(OCH2CH2)3—CH2—NH2] (Palmitoyl-KAQKRF-{NH(CH2)3(OCH2CH2)2O(CH2)3NH})
[1]
  Gram positive bacteria MIC, Staphylococcus epidermidis: 5.8 µg/mL
Vibro ordalii
  Gram negative bacteria MIC, Vibro ordalii: 8.2 µg/mL
Bacillus megaterium
  Gram positive bacteria MIC, Bacillus megaterium: 12.1 µg/mL
Bacillus oleronius
  Gram negative bacteria MIC, Bacillus oleronius: 8.0 µg/mL
Vibrio angillarum
  Gram negative bacteria MIC, Vibrio angillarum: 30.0 µg/mL
Micrococcus luteus
  Gram positive bacteria MIC, Micrococcus luteus: 5.5 µg/mL
Salmonella tiphy
  Gram negative bacteria MIC, Salmonella tiphy: 5.8 µg/mL
Enterobacter hydrophila
  Gram negative bacteria MIC, Enterobacter hydrophila: 11.6 µg/mL
E. Coli
  Gram negative bacteria MIC, E. Coli: 5.5 µg/mL
Staphylococcus aureus
  Gram positive bacteria MIC, Staphylococcus aureus: 5.5 µg/mL
In vitro
  HC50 at 1 hour: > 500 µg/mL
Fusarium oxysporum
  MIC, Fusarium oxysporum: 0.4 µg/mL (≈ 0.329 µM)
Saprolegnia sp
  MIC, Saprolegnia sp: 0.1 µg/mL (≈ 0.0821 µM)
Neurospora crassa
  MIC, Neurospora crassa: 0.3 µg/mL (≈ 0.246 µM)

## KWKAQK [compound 5, Ac-KWKAQK-NH2]
LPS from E. Coli 055:B5
  IC50: 47 ± 1.1 µM

## SGKWKA [compound 4, Ac-SGKWKA-NH2]
LPS from E. Coli 055:B5
  IC50: 85 ± 1.4 µM

## IKISGK [compound 2, Ac-IKISGK-NH2]
LPS from E. Coli 055:B5
  IC50: 105 ± 1.2 µM

## CCCCCCCCCCCCCCCC(=O)N[C@@H](CCCCN)C(=O)N[C@@H](C)C(=O)N[C@@H](CCC(N)=O)C(=O)N[C@@H](CCCCN)C(=O)N[C@@H](CCCNC(=N)N)C(=O)N[C@@H](Cc1ccccc1)C(N)=O [Example 2, Palm-KAQKRF-NH2] (Palmitoyl-KAQKRF-NH2)
[1]
  Gram positive bacteria MIC, Staphylococcus epidermidis: 5.6 µg/mL
Vibro ordalii
  Gram negative bacteria MIC, Vibro ordalii: 7.4 µg/mL
Bacillus megaterium
  Gram positive bacteria MIC, Bacillus megaterium: 12.3 µg/mL
Bacillus oleronius
  Gram negative bacteria MIC, Bacillus oleronius: 9.7 µg/mL
Vibrio angillarum
  Gram negative bacteria MIC, Vibrio angillarum: 31.0 µg/mL
Micrococcus luteus
  Gram positive bacteria MIC, Micrococcus luteus: 5.6 µg/mL
Salmonella tiphy
  Gram negative bacteria MIC, Salmonella tiphy: 6.1 µg/mL
Enterobacter hydrophila
  Gram negative bacteria MIC, Enterobacter hydrophila: 11.3 µg/mL
E. Coli
  Gram negative bacteria MIC, E. Coli: 5.6 µg/mL
Staphylococcus aureus
  Gram positive bacteria MIC, Staphylococcus aureus: 5.7 µg/mL
In vitro
  HC50 at 1 hour: > 500 µg/mL
Fusarium oxysporum
  MIC, Fusarium oxysporum: 0.5 µg/mL (≈ 0.493 µM)
Saprolegnia sp
  MIC, Saprolegnia sp: 0.1 µg/mL (≈ 0.0986 µM)
Neurospora crassa
  MIC, Neurospora crassa: 0.2 µg/mL (≈ 0.197 µM)

## CC(=O)N[C@@H](CCCCN)C(=O)N[C@@H](C)C(=O)N[C@@H](CCC(N)=O)C(=O)N[C@@H](CCCCN)C(=O)N[C@@H](CCCNC(=N)N)C(=O)N[C@@H](Cc1ccccc1)C(N)=O [Example 1, Ac-KAQKRF-NH2] (Ac-KAQKRF-NH2)
[1]
  Gram positive bacteria MIC, Staphylococcus epidermidis: 11.4 µg/mL
Vibro ordalii
  Gram negative bacteria MIC, Vibro ordalii: 10.2 µg/mL
Bacillus megaterium
  Gram positive bacteria MIC, Bacillus megaterium: 13.7 µg/mL
Bacillus oleronius
  Gram negative bacteria MIC, Bacillus oleronius: 11.9 µg/mL
Vibrio angillarum
  Gram negative bacteria MIC, Vibrio angillarum: 31.2 µg/mL
Micrococcus luteus
  Gram positive bacteria MIC, Micrococcus luteus: 6.0 µg/mL
Salmonella tiphy
  Gram negative bacteria MIC, Salmonella tiphy: 11.7 µg/mL
Enterobacter hydrophila
  Gram negative bacteria MIC, Enterobacter hydrophila: 14.2 µg/mL
E. Coli
  Gram negative bacteria MIC, E. Coli: 10.8 µg/mL
Staphylococcus aureus
  Gram positive bacteria MIC, Staphylococcus aureus: 11.7 µg/mL
In vitro
  HC50 at 1 hour: > 500 µg/mL
Fusarium oxysporum
  MIC, Fusarium oxysporum: 0.9 µg/mL (≈ 1.1 µM)
Saprolegnia sp
  MIC, Saprolegnia sp: 0.2 µg/mL (≈ 0.245 µM)
Neurospora crassa
  MIC, Neurospora crassa: 0.9 µg/mL (≈ 1.1 µM)

## IKISGKWKAQKRFLKM [compound 1, Ac-IKISGKWKAQKRFLKM-NH2]
LPS from E. Coli 055:B5
  IC50: 34 ± 1.3 µM

## KISGKW [compound 3, Ac-KISGKW-NH2]
LPS from E. Coli 055:B5
  IC50: 96 ± 1.1 µM

## AQKRFL [compound 6, Ac-AQKRFL-NH2]
LPS from E. Coli 055:B5
  IC50: 46 ± 1.1 µM

Source: patent US9745346B2, “Antimicrobial peptides and their application” (INFINITEC ACTIVOS S.L., priority 2014, dated 2017)
